Assays:
Rattus norvegicus [1] = species: Rattus norvegicus; test: Inhibition of carnitine-dependent oxidation of [1-14C]palmitate to 14CO2 in rat liver mitochondria was measured in vitro at 2 mM concentration
Rattus norvegicus [2] = species: Rattus norvegicus; test: Inhibition of carnitine-dependent oxidation of [1-14C]palmitate to 14CO2 in rat liver mitochondria was measured in vitro at 2*10e-1 mM concentration; assay type: functional
Rattus norvegicus [3] = species: Rattus norvegicus; test: Inhibition of carnitine-dependent oxidation of [1-14C]palmitate to 14CO2 in rat liver mitochondria was measured in vitro at 2*10e-2 mM concentration; assay type: functional
Rattus norvegicus [4] = species: Rattus norvegicus; test: Inhibition of carnitine-dependent oxidation of [1-14C]palmitate to 14CO2 in rat liver mitochondria was measured in vitro at 2*10e-3 mM concentration; assay type: functional

Row | Compound | inhibition (Rattus norvegicus [1]) [%] | inhibition (Rattus norvegicus [2]) [%] | inhibition (Rattus norvegicus [3]) [%] | inhibition (Rattus norvegicus [4]) [%]
1 | CC(=O)NC(CC(=O)[O-])C[N+](C)(C)C (stereo not drawn) | 38 | 6 | – | –
2 | C[N+](C)(C)CC(CC(=O)[O-])NC(N)=O (stereo not drawn) | 72 | 84 | – | –
3 | COC(=O)CC(N)C[N+](C)(C)C (stereo not drawn) | – | – | 73 | 26
4 | C[N+](C)(C)CC(CC(=O)[O-])NC(=O)OCc1ccccc1 (stereo not drawn) | 98 | 85 | – | –
5 | COC(=O)NC(CC(=O)[O-])C[N+](C)(C)C (stereo not drawn) | 0 | 0 | – | –
6 | CCOC(=O)CC(N)C[N+](C)(C)C (stereo not drawn) | – | – | 85 | 37
7 | CCC(=O)NC(CC(=O)[O-])C[N+](C)(C)C (stereo not drawn) | 44 | – | – | –
8 | CCCCCCCCCCCCCC(=O)NC(CC(=O)[O-])C[N+](C)(C)C (stereo not drawn) | – | – | 100 | 100
9 | Cc1ccc(S(=O)(=O)NC(CC(=O)[O-])C[N+](C)(C)C)cc1 (stereo not drawn) | 100 | 84 | – | –
10 | C[N+](C)(C)C[C@@H](CC(=O)[O-])NC=O | 84 | 53 | – | –
11 | C[N+](C)(C)C[C@H](N)CC(=O)[O-] | – | – | 90 | 59
12 | CCCC(=O)NC(CC(=O)[O-])C[N+](C)(C)C (stereo not drawn) | 50 | – | – | –
13 | CNC(CC(=O)[O-])C[N+](C)(C)C (stereo not drawn) | 100 | 89 | – | –
14 | CCCCCCCCCCCCCCCC(=O)NC(CC(=O)[O-])C[N+](C)(C)C (stereo not drawn) | – | – | 100 | 100
15 | C[N+](C)(C)CC(N)CC(N)=O (stereo not drawn) | – | – | 27 | 10
